In ChEMBL document CHEMBL3991601, “The target landscape of clinical kinase drugs” (Science, 2017) one finds Kd data, which are given here for nine compounds.

Calls of active or inactive are those of the source. Rule as the data show it, for most assays here: actives have a measured Kd and inactives only a lower limit.

In assay [1] the target is Deoxycytidine kinase (Homo sapiens, UniProt P27707).
Assay [2] deals with T1, Uncharacterized protein FLJ45252 (Homo sapiens, UniProt Q6ZSR9).
T1 sequence (Q6ZSR9 whole entry): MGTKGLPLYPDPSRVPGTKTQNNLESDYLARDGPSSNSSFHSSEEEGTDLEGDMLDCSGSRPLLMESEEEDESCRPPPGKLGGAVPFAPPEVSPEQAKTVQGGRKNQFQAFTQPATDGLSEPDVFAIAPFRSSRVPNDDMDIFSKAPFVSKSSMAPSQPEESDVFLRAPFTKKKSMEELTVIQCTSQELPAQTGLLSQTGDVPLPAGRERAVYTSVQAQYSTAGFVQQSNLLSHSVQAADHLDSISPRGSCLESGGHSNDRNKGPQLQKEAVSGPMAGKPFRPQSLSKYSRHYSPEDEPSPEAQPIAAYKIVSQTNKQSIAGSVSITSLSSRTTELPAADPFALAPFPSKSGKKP
The conditions noted are these: read-out: Kd apparent; k-562, colo 205, sk-n-be(2) and mv-4-11.

Assay [3] addresses Casein kinase I isoform alpha (Homo sapiens, UniProt P48729).
Assay [4] deals with Cyclin-dependent kinase 3 (Homo sapiens, UniProt Q00526).
Assay [5] has as its target AP2-associated protein kinase 1 (Homo sapiens, UniProt Q2M2I8).
Assay [6] concerns the target T2, cGMP-dependent protein kinase 1 (Homo sapiens, UniProt Q13976).
T2 sequence (Q13976 whole entry): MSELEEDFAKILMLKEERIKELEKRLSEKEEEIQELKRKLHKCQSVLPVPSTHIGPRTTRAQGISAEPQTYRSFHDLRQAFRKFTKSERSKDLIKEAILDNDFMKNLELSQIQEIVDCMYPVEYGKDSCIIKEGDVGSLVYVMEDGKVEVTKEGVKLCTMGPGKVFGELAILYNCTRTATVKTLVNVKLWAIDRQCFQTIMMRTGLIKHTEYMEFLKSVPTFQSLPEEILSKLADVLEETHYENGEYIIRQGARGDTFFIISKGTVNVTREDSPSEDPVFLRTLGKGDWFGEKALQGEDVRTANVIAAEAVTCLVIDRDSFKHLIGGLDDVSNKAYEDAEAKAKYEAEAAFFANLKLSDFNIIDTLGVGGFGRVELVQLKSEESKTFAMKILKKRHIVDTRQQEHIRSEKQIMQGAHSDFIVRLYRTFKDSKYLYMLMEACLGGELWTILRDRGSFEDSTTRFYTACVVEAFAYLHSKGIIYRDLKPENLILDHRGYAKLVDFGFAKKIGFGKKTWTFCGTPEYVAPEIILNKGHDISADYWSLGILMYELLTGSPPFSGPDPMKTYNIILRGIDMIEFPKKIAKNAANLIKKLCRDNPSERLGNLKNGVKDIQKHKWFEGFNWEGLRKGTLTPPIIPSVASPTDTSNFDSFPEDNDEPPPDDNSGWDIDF

The target in assay [7] is T3, Serine/threonine-protein kinase ICK (Homo sapiens, UniProt Q9UPZ9).
T3 sequence (Q9UPZ9 whole entry): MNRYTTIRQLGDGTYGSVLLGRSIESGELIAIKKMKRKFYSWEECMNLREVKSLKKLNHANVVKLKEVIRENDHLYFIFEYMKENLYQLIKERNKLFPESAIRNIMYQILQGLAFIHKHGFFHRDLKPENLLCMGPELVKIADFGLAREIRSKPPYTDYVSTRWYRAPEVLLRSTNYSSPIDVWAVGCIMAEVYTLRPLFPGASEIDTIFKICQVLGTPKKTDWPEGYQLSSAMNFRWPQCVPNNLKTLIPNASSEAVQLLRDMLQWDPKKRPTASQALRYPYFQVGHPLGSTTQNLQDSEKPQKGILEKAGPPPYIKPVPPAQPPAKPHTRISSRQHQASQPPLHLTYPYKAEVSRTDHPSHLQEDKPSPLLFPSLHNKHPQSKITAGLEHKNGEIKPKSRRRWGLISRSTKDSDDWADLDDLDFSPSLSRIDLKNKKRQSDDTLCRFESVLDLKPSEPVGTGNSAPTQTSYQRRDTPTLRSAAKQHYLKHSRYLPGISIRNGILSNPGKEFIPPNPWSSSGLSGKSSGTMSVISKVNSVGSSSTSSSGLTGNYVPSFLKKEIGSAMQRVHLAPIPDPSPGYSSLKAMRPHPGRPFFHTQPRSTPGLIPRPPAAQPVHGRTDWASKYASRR

For assay [8], the target named is T4, Dual specificity mitogen-activated protein kinase kinase 6 (Homo sapiens, UniProt P52564).
T4 sequence (P52564 whole entry): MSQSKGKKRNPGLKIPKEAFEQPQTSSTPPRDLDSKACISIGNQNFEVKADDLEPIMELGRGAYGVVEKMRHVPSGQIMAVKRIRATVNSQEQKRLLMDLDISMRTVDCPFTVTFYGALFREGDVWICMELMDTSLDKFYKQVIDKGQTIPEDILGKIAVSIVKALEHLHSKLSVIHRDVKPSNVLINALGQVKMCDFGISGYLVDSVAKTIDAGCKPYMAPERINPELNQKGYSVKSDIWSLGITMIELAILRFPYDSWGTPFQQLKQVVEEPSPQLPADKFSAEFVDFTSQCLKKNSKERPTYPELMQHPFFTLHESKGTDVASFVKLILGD

In assay [9] the target is Ribosomal protein S6 kinase alpha-6 (Homo sapiens, UniProt Q9UK32).
Assay [10] concerns the target Mitotic checkpoint serine/threonine-protein kinase BUB1 (Homo sapiens, UniProt O43683).
The target in assay [11] is T5, Interleukin-1 receptor-associated kinase 4 (Homo sapiens, UniProt Q9NWZ3).
T5 sequence (Q9NWZ3 whole entry): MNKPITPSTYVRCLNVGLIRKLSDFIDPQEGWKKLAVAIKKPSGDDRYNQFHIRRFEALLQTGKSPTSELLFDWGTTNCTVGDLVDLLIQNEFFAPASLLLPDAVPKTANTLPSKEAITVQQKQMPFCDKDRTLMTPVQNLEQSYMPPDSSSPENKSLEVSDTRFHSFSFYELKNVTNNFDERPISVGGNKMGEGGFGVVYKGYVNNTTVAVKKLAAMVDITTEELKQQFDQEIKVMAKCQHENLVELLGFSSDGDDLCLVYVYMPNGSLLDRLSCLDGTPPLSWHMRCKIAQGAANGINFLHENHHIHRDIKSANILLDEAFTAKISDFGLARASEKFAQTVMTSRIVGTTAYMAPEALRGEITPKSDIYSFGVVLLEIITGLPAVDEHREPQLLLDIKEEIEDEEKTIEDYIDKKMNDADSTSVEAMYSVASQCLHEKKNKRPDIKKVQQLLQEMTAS

Assay [12] concerns the target Macrophage-stimulating protein receptor (Homo sapiens, UniProt Q04912).
Also: in the data inactive means no Kd found up to 30 µM.

AP2-associated protein kinase 1, sequence (Q2M2I8 whole entry): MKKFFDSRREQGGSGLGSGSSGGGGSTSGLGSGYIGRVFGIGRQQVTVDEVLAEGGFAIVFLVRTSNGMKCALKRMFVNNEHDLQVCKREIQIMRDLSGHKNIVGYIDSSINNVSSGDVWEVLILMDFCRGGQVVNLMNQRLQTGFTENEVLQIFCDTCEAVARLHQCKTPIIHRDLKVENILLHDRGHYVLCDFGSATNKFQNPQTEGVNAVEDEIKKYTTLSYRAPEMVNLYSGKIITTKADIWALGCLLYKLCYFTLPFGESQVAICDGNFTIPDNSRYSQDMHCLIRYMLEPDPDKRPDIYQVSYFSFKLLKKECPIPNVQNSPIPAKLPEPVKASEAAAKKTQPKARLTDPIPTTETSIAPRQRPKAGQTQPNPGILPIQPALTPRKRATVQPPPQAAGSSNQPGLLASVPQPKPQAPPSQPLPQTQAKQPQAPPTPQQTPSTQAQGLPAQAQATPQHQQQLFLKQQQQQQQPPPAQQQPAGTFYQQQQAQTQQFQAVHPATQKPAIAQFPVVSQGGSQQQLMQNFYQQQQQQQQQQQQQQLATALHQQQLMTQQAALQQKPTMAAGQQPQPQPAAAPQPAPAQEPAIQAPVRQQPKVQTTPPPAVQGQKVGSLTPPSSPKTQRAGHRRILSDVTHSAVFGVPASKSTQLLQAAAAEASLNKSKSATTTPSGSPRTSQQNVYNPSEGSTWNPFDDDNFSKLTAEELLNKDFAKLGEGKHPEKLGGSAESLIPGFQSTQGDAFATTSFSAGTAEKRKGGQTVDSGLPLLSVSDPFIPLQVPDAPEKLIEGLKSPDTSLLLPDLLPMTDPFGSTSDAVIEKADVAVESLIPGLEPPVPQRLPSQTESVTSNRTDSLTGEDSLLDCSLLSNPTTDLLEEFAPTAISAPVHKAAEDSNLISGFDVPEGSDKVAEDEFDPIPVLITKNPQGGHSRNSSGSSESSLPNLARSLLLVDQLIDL
Deoxycytidine kinase, sequence (P27707 whole entry): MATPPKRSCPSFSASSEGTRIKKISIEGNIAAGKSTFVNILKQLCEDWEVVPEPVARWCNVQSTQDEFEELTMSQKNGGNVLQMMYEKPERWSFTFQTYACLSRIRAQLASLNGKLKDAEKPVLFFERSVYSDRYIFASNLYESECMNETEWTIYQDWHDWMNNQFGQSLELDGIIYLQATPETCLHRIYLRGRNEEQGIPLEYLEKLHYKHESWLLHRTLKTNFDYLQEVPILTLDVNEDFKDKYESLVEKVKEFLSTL
Ribosomal protein S6 kinase alpha-6, sequence (Q9UK32 whole entry): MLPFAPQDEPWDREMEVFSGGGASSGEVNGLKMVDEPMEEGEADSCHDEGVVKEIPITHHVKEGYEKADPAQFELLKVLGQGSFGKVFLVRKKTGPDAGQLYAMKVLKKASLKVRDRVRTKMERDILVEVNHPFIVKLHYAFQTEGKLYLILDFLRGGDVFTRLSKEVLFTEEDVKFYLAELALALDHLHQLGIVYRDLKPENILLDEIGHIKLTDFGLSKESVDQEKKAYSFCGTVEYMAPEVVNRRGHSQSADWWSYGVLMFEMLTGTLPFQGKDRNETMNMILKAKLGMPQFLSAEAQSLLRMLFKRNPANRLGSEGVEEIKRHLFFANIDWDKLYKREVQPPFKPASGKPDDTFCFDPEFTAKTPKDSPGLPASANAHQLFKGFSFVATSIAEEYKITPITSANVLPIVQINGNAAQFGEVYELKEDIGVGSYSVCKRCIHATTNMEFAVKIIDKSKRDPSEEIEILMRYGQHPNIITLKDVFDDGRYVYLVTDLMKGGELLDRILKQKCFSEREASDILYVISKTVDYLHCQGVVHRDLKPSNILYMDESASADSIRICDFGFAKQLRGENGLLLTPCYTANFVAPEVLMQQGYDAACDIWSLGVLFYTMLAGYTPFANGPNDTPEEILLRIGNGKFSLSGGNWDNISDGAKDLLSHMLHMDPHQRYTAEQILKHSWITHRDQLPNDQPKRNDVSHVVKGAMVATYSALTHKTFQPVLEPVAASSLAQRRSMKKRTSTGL
Macrophage-stimulating protein receptor, sequence (Q04912 25-304 limits assumed): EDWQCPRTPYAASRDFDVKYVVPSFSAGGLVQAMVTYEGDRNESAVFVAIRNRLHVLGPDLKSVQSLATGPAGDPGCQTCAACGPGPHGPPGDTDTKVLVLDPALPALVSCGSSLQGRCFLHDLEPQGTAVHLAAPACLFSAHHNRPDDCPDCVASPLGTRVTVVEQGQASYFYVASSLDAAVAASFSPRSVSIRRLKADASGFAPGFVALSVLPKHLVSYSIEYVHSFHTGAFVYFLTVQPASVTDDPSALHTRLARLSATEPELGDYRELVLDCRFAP
Macrophage-stimulating protein receptor, sequence (Q04912 310-1400 limits assumed): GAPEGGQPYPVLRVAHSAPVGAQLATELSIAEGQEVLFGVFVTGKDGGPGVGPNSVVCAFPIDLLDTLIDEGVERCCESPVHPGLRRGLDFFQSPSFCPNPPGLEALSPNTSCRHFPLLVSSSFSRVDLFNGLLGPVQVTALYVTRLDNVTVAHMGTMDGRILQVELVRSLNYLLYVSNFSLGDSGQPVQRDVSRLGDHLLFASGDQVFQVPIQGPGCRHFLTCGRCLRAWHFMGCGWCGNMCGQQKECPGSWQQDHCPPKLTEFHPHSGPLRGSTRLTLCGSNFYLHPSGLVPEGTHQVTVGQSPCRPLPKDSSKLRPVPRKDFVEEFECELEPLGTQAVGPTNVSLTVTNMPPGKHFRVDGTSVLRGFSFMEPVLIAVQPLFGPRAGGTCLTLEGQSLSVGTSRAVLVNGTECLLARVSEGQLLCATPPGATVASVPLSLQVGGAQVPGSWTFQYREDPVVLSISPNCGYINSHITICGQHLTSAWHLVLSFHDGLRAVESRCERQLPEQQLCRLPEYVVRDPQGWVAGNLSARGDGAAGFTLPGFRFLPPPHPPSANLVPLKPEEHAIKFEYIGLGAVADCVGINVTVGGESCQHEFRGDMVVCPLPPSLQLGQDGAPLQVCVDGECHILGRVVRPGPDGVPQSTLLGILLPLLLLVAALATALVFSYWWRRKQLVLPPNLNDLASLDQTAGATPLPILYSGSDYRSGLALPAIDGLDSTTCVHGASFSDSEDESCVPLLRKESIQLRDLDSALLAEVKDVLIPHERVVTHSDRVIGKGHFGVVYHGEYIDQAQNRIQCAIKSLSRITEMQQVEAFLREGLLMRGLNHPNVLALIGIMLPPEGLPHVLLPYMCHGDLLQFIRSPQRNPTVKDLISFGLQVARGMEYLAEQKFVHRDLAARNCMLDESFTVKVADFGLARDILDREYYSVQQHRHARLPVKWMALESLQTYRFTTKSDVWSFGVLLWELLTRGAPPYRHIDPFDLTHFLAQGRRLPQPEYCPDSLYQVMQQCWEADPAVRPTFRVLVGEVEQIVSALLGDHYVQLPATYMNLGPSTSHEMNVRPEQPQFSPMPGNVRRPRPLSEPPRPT
Cyclin-dependent kinase 3, sequence (Q00526 whole entry): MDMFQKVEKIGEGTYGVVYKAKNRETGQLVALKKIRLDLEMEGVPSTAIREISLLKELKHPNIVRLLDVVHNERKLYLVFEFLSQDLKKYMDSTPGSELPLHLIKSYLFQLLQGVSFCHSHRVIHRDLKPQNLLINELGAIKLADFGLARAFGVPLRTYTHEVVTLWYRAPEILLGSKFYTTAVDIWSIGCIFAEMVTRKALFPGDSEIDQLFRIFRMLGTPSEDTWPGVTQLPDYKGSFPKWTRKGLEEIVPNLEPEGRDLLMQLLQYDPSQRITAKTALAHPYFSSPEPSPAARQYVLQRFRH
Mitotic checkpoint serine/threonine-protein kinase BUB1, sequence (O43683 whole entry): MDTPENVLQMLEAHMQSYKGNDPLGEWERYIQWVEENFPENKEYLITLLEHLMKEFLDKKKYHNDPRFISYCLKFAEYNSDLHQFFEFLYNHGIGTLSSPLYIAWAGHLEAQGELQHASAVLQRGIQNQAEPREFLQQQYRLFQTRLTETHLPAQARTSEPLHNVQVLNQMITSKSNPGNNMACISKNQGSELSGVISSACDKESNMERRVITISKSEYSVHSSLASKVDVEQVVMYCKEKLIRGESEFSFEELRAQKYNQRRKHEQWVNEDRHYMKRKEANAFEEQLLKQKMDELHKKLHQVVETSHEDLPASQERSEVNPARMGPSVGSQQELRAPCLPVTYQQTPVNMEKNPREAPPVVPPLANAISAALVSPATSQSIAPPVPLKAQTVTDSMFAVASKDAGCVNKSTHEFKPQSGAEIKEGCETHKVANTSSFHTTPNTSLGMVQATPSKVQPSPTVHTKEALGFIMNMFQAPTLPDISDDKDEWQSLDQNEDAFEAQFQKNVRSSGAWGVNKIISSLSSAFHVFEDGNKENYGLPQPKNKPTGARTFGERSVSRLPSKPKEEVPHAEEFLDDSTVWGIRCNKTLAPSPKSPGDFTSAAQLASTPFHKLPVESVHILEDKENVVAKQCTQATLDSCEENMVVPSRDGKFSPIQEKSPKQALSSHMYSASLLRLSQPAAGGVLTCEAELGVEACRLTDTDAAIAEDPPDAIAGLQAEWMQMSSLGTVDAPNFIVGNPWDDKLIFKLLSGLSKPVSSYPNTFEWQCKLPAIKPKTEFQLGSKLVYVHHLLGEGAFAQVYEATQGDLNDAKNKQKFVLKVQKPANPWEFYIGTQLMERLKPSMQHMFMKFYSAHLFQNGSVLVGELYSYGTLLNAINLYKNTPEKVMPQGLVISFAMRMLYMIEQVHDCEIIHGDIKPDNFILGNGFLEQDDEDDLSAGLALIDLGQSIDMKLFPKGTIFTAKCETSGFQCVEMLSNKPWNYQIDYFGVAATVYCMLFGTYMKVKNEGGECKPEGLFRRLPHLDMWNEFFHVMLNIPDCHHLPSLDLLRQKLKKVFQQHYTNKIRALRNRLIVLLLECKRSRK

With `Cc1cc(Nc2nc(N[C@@H](C)c3ncc(F)cn3)ncc2Cl)n[nH]1` [AZD-1480], the Kd in assay [1] is > 30 µM (inactive); in assay [2] it was > 30 µM (inactive); in [3], > 30 µM (inactive); in assay [4] it was 0.942 µM; in [5], > 30 µM (inactive); in [6], > 30 µM (inactive). Also, the Kd in assay [7], in assay [8], in assay [9], in [10], in assay [11] and in assay [12] was > 30 µM (inactive) in each case.
On to `Cc1ccc(C(=O)Nc2ccc(Oc3cc4cnn(C)c4cc3-c3cn[nH]c3)c(F)c2)c(=O)n1-c1ccc(F)cc1` [MERESTINIB], for which the Kd in assay [1], in assay [2], in assay [3], in assay [4], in [5] and in assay [6] was > 30 µM (inactive) throughout. For the same compound, the Kd was > 30 µM (inactive) in [7]; > 30 µM (inactive) in [8]; > 30 µM (inactive) in assay [9]; > 30 µM (inactive) in assay [10]; > 30 µM (inactive) in [11]; 0.232 µM in assay [12].
`CCOc1ccn(-c2ccc(F)cc2)c(=O)c1C(=O)Nc1ccc(Oc2ccnc(N)c2Cl)c(F)c1` [BMS-777607]: the Kd in [1], in assay [3], in assay [4], in [5], in assay [6] and in [7] was > 30 µM (inactive) throughout. Moreover, the Kd in assay [8], in [9], in assay [11] and in assay [12] was > 30 µM (inactive) each time.
Turning to `FC(F)(F)c1ccc(CNc2ccc(Cc3c[nH]c4ncc(Cl)cc34)cn2)cn1` [PEXIDARTINIB], the Kd was > 30 µM (inactive) in [1]; > 30 µM (inactive) in [3]; > 30 µM (inactive) in assay [4]; 13.7 µM (active) in assay [5]; > 30 µM (inactive) in assay [6]; > 30 µM (inactive) in assay [7]. Also, the Kd in assay [8], in [9], in [10], in assay [11] and in [12] was > 30 µM (inactive) throughout.
Turning to `O=C(O)c1ccc2c(c1)nc(Nc1cccc(Cl)c1)c1ccncc12` [SILMITASERTIB], the Kd in [1], in assay [2], in [3], in assay [4], in assay [5] and in assay [6] was > 30 µM (inactive) throughout. Also, the Kd in [7] is 0.884 µM (active); in assay [8], > 30 µM (inactive); in [9], 3.42 µM (active); in [11], > 30 µM (inactive); in [12], > 30 µM (inactive).
For `C=CC(=O)Nc1cccc(Nc2nc(Nc3ccc(N4CCN(C(C)=O)CC4)cc3OC)ncc2C(F)(F)F)c1` [ROCILETINIB], the Kd in assay [1], in assay [2], in assay [3], in [4], in [5] and in assay [6] was > 30 µM (inactive) each time. Also, the Kd in assay [7], in assay [8], in [9], in [11] and in [12] was > 30 µM (inactive) in each case.
For the compound `COc1cccc(Nc2ncnn3ccc(CN4CC[C@@H](N)[C@H](O)C4)c23)c1` [BMS-690514], the Kd was > 30 µM (inactive) in assay [1]; 1.37 µM (active) in assay [3]; > 30 µM (inactive) in assay [4]; 1.41 µM (active) in [5]; > 30 µM (inactive) in assay [6]; > 30 µM (inactive) in assay [7]. Further, the Kd in [8], in assay [9], in [10], in assay [11] and in assay [12] was > 30 µM (inactive) throughout.
Turning to `C=CC(=O)Nc1cc(Nc2nccc(-c3cn(C)c4ccccc34)n2)c(OC)cc1N(C)CCN(C)C` [OSIMERTINIB], the Kd in assay [1], in [3], in assay [4], in [5], in assay [6] and in [7] was > 30 µM (inactive) throughout. In addition, the Kd in assay [8], in [9], in assay [10], in [11] and in [12] was > 30 µM (inactive) in each case.
In the case of `C=CCN(/C=C1/C(=O)O[C@H](COC)[C@@]2(C)C1=C(O)C(=O)C1=C2[C@H](OC(C)=O)C[C@]2(C)C(=O)CC[C@@H]12)CC=C` [SONOLISIB], the Kd in [1], in [2], in assay [3], in [4], in assay [5] and in assay [6] was > 30 µM (inactive) in each case. Besides, the Kd in assay [7], in assay [8], in assay [9], in [11] and in [12] was > 30 µM (inactive) each time.
